pIC50: −log10 of the molar value.
How the values were obtained:
[1] = molecular target: 5-hydroxytryptamine receptor 1B (Rattus norvegicus, UniProt P28564); assay: Inhibitory activity against [3H]5-HT binding to 5-HT1B receptor in rat striatum; assay type: tissue-based
Acetylcholinesterase = molecular target: T1, Acetylcholinesterase (Rattus norvegicus, UniProt P37136); assay: Inhibitory activity against Acetylcholinesterase in rat striatum; assay type: tissue-based
T1 sequence (P37136 whole entry): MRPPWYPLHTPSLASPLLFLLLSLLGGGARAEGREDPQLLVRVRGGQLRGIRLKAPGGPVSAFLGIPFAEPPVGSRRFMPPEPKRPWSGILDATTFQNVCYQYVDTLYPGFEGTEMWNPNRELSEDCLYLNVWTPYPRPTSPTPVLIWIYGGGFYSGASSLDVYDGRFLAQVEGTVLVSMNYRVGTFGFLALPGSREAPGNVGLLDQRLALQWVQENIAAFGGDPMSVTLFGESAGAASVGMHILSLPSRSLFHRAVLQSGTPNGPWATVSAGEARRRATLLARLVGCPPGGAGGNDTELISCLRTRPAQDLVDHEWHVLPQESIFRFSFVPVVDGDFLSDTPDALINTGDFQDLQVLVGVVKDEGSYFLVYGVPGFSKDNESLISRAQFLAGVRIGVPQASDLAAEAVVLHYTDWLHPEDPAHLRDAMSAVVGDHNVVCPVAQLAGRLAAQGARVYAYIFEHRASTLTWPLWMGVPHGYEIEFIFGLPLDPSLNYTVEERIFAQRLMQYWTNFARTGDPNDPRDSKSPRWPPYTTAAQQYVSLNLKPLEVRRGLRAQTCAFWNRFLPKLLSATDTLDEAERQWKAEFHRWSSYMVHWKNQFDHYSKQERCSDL

[2] = molecular target: T2, Adrenergic receptor alpha-2 (Rattus norvegicus, UniProt P22086+P19328+P22909); assay: Inhibitory activity against [3H]idazoxan binding to Alpha-2 adrenergic receptor in rat cortex, in the presence of GPP
T2 sequence (P22086 whole entry): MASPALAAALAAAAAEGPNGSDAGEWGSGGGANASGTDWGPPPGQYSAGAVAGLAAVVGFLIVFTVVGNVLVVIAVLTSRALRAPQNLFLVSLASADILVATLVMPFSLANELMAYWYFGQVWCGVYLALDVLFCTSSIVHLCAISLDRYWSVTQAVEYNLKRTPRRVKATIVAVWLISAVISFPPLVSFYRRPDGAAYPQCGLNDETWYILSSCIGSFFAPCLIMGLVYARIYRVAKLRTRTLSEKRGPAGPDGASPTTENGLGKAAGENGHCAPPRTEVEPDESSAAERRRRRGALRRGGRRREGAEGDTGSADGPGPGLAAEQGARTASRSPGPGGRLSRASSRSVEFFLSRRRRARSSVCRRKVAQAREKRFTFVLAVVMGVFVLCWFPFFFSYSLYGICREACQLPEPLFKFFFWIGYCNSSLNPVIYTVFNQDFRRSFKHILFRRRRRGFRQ
T2 sequence (P19328 whole entry): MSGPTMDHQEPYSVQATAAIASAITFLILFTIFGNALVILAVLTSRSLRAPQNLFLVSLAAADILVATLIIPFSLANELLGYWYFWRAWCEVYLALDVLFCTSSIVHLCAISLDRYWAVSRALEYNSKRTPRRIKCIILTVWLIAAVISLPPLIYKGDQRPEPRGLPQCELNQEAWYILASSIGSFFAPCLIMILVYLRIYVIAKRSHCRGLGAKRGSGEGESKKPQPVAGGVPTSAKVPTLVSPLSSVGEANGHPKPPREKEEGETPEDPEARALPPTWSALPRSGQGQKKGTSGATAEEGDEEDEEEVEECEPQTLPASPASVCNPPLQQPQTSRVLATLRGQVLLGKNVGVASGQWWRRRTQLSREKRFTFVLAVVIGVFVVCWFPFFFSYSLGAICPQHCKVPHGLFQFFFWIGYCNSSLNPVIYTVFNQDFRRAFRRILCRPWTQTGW
T2 sequence (P22909 whole entry): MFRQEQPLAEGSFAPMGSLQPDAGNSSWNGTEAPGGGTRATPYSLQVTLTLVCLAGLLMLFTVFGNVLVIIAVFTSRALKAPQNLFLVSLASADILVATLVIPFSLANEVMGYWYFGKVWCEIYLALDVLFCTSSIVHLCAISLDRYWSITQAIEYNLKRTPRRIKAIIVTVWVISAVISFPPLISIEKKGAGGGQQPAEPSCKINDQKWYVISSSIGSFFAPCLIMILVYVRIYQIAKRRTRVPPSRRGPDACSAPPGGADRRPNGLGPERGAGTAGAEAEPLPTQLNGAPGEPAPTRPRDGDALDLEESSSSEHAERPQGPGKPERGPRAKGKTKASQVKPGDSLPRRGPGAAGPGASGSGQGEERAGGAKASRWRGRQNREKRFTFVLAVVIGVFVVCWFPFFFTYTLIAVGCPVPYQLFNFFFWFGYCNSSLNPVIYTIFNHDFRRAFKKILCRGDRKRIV

D(1A) dopamine receptor = D(1A) dopamine receptor (Rattus norvegicus, UniProt P18901); assay: Inhibitory activity against [3H]SCH-23390 binding to Dopamine receptor D1 in rat striatum; assay type: tissue-based
D(1A) dopamine receptor, sequence (P18901 whole entry): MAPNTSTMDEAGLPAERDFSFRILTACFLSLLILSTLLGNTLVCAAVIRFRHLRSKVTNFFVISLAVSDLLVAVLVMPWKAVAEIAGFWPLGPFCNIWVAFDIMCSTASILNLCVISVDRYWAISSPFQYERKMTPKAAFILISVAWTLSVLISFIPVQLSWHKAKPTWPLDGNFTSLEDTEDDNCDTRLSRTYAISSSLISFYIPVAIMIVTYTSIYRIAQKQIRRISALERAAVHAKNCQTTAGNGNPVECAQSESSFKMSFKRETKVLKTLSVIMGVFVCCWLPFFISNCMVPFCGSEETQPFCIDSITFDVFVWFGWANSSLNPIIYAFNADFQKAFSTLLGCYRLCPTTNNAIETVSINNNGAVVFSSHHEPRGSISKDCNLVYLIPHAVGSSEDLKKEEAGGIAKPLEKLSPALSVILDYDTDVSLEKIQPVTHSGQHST

[3] = molecular target: Muscarinic acetylcholine receptor; assay: Inhibitory activity against [3H]oxotremorine-M binding to muscarinic receptors in rat forebrain membrane; assay type: cell membranes
[4] = molecular target: T3, Muscarinic acetylcholine receptor M1 (Rattus norvegicus, UniProt P08482); assay: Inhibitory activity against [3H]pirenzepine binding to muscarinic M1 receptor in rat cortex
T3 sequence (P08482 whole entry): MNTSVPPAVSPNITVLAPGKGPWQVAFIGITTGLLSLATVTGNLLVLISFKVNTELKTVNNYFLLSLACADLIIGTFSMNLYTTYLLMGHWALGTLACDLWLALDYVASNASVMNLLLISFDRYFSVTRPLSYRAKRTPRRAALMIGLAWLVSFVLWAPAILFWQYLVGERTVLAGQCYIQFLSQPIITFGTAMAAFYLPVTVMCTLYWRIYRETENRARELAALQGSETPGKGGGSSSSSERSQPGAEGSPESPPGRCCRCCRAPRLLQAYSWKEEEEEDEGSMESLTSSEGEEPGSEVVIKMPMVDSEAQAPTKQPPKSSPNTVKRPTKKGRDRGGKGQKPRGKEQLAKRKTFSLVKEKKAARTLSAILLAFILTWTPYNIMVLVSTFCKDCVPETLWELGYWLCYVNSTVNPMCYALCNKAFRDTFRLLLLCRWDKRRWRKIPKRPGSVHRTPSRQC

Rattus norvegicus [5] = organism: Rattus norvegicus; assay: Inhibitory activity against [3H]norepinephrine (NE) uptake in rat whole brain; assay type: functional
Rattus norvegicus [6] = organism: Rattus norvegicus; assay: Inhibitory activity against [3H]5-HT uptake in rat whole brain; assay type: functional
D(2) dopamine receptor = D(2) dopamine receptor (Rattus norvegicus, UniProt P61169); assay: Inhibitory activity against [3H]spiroperidol bingind to Dopamine receptor D2 in rat striatum; assay type: tissue-based
D(2) dopamine receptor, sequence (P61169 whole entry): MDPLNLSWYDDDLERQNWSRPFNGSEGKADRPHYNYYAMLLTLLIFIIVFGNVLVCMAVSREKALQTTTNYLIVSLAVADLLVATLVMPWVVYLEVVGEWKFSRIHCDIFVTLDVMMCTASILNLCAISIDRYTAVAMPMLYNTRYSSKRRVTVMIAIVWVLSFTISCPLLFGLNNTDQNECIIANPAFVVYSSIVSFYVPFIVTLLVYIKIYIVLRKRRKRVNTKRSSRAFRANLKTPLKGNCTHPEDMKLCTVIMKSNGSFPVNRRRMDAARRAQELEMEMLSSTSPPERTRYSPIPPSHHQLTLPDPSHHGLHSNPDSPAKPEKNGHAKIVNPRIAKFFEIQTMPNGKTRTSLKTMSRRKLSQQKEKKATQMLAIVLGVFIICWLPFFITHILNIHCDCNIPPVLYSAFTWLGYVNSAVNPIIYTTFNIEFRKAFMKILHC

5-hydroxytryptamine receptor 1B, sequence (P28564 whole entry): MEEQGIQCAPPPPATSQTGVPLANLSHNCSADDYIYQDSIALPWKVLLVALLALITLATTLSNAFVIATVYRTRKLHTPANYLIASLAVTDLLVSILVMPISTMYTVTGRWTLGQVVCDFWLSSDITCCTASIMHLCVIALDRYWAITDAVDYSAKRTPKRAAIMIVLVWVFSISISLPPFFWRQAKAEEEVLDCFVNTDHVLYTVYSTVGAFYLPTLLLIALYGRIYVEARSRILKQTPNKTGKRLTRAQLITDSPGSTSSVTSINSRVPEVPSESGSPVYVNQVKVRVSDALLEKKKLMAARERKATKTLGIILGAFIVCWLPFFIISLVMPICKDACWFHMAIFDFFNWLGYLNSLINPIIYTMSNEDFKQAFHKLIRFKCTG

CCCN(c1ccncc1)n1ccc2ccccc21 [BESIPIRDINE]
pIC50 [1]: < 4.70
pIC50 (Acetylcholinesterase): < 4.00
IC50 [2]: 140 nM
pIC50 (D(1A) dopamine receptor): < 4.70
IC50 [3]: 460 nM
pIC50 [4]: 5.89
pIC50 (Rattus norvegicus [5]): 6.37
pIC50 (Rattus norvegicus [6]): 5.59
pIC50 (D(2) dopamine receptor): < 4.70

Reference: ChEMBL document CHEMBL1129670, “Synthesis and structure-activity relationships of N-propyl-N-(4-pyridinyl)-1H-indol-1-amine (besipirdine) and related analogs as potential therapeutic agents for Alzheimer's disease” (J Med Chem, 1996)
